Results on one substance are retold here after US4287186A, “Antibiotics, a process for their preparation and their use as plant protection agents” (Bayer Aktiengesellschaft, priority 1979, dated 1981).

Data set [1] deals with Megoura viciae (vetch aphid). The conditions noted are these: in vivo. The procedure: The tests with Megoura viciae were carried out on potted field bean plants (Vicia faba, variety "Saxa") under laboratory conditions. The test animals were transferred to the test plants only after the plants had been treated and the spray coating had dried on. The tests were as a rule evaluated 5 days after the start of the test, calculated from the time at which the test animals were introduced.

The format of data set [2] is physicochemical. The text has this: (e) Thin layer chromatography: Three ninhydrin-positive spots, of which, in each case, only one spot corresponds to the substances which is active in the bioautogram, are found in all the solvent systems used which contain acetic acid. This fact could be ascribed to the lability of the antibiotic in acetic acid solution. In neutral solvent systems, only one ninhydrin-positive spot is found in each case.

In the case of Nikkomycin, the “mortality of the larvae which had developed normally during the ecdysis stages” value in data set [1] is “more than 90%”. In data set [2], the “stability in acetic acid solution” value was “lability”.
